Values joined by “and” are separate entries in the source; they are usually repeats but may differ in a detail not shown here. Equal values may be shown once.
Legend:
gastric H,K-ATPase = target: T1, gastric H,K-ATPase (Sus scrofa, UniProt P19156); test: Inhibition of ATPase activity using isolated hog gastric vesicles; format: biochemical; conditions: for inhibition of enzyme activity after 80 minutes: after 80 minutes at pH 7.4, 37° C.; for inhibition of gastric H,K-ATPase activity initially (before hydrolysis): 10, 20, 50, and 100 μM, pH 7.4, 37° C.
T1 construct: from tissue; host or cells: hog gastric vesicles (stomach mucosa)
T1 sequence (P19156 2-1034 limits assumed): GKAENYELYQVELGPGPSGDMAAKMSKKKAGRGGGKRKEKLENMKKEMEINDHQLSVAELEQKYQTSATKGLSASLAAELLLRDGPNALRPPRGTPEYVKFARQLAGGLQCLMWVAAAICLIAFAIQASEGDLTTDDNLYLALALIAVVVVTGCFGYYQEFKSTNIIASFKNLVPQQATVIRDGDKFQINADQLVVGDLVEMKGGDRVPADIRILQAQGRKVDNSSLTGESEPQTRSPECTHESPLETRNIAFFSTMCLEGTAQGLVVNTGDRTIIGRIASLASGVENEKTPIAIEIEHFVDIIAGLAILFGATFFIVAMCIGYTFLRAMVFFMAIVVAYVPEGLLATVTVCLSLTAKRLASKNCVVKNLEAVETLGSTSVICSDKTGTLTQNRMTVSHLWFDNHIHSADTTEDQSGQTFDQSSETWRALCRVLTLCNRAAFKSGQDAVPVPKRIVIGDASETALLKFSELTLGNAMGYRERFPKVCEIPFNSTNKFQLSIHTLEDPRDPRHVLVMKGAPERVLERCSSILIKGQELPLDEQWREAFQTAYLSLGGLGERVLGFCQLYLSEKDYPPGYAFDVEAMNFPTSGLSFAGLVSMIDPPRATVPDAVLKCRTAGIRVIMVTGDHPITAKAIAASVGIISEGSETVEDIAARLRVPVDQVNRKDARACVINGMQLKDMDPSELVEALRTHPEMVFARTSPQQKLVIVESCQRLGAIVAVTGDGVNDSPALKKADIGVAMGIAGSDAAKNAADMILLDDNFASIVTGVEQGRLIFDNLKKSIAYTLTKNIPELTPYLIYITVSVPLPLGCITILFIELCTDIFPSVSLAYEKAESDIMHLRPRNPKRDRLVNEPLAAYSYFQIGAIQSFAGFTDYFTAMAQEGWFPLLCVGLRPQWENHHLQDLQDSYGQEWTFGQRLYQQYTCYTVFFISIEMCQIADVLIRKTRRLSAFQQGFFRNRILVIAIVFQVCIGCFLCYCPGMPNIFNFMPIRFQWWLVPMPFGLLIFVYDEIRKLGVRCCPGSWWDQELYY
T1 sequence (P18434 whole entry partner): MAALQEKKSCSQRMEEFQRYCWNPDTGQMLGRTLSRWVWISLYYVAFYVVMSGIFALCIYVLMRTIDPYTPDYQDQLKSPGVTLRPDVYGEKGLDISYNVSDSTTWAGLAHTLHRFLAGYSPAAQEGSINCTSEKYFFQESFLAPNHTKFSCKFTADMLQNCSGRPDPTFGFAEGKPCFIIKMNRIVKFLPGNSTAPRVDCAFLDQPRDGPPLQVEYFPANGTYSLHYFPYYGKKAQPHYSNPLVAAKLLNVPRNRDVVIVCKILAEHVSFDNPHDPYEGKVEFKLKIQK
From the text: By way of concrete examples, the following tests and results are described. […] This is consistent with the knowledge that the compounds obtained by hydrolysis e. g. LANSOPRAZOLE, OMEPRAZOLE, PANTOPRAZOLE and RABEPRAZOLE are well known H,K-ATPase inhibitors. […] Another good example is 2-(2-carbamoylmethoxy-4-{2-[4-(3-methoxypropoxy)-3-methyl pyridin-2-yl methylsulfinyl]benzimidazole-1-sulfonyl}phenoxy)acetamide. The half life of this compound dependes on pH. […] Based on these measured characteristics the compound 2-(2-carbamoylmethoxy-4-{2-[4-(3-methoxypropoxy)-3-methyl pyridin-2-yl methylsulfinyl]benzimidazole-1-sulfonyl}phenoxy)acetamide is expected to be well absorbed, and slowly release the parent RABEPRAZOLE in the blood, resulting in long-lasting in vivo activity. This compound can also be administered intravenously in an aqueous solution at pH 7.4 which solution may include 2-hydroxypropyl-β-cyclodextrin.
Inhibition of ATPase activity was measured using isolated hog gastric vesicles. The gastric H,K-ATPase (10 μg) was incubated at 37° C. in a solution (1 ml) composed of 0.25M sucrose, 20 mM Pipes/Tris, pH 7.4, 0.15M KCl, 2 mM MgCl2, valinomycin 2 μg/ml, and various concentration of compounds of the invention. At timed intervals, ATP was added (up to 2 mM) and incubated for 15 minutes and amount of released phosphate ion was measured. As a control experiment the prior art drug without a labile group on the benzimidazole nitrogen (e. g. OMEPRAZOLE or LANSOPRAZOLE) was used for measuring inhibition of enzyme activity.

[1] = system: gastric acid secretion of the conscious male rat; test: Inhibitory effect on gastric acid secretion of the conscious male rat at timed intervals after oral administration; format: in vivo; conditions: between 5.5-8.5 hours after oral administration; 10 μmole/kg; histamine and carbachol stimulated; male rat
[2] = system: gastric acid secretion (histamine-stimulated acid output), pylorus-ligated male rats; test: Initial inhibition of gastric acid secretion after intraduodenal administration to pylorus-ligated rats; format: in vivo; conditions: 10 μmole/kg, after pylorus ligation, histamine 30 mg/kg s.c., acid output over four hours, rat
Description: Histamine (30 mg/kg) was subcutaneously injected to stimulate acid production. The abdomen was surgically closed immediately. Four hours later the esophagus was ligated and the stomach was removed. Acid output was measured as described above.

[3] = Relative plasma concentration of OMEPRAZOLE in male rat after oral administration; conditions: for Relative concentration of OMEPRAZOLE released in the plasma: male rat, examples 2 mg/kg, OMEPRAZOLE 4 mg/kg;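 for all read-outs here: Sprague-Dawley rats fasted one day with water available, dosed orally with prodrug compounds, OMEPRAZOLE quantified by HPLC in plasma from serial blood draws, control given OMEPRAZOLE itself orally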
Description: Male adult rats of the Sprague-Dawley strain were used for determining the concentration of OMEPRAZOLE in the plasma. All rats were derived of food but not of water for one day. Examples of compounds of the invention (2 mg/kg of rat weight) were orally administrated to male rats (weighing 250 g to 270 g) and blood samples (0.3 ml) were taken at timed intervals. Blood samples were centrifuged and plasma was taken out. Plasma was extracted with 0.5 ml of dichloromethane. Dichloromethane layer was evaporated by nitrogen/air blowing. The residual materials were dissolved in 0.5 ml of 40% acetonitrile in 10 mM phosphate buffer (pH 7.4). Amounts of OMEPRAZOLE were determined by HPLC analysis. As a control, OMEPRAZOLE (4 mg/kg of rat weight) was orally administrated.

[4] = Acid stability in 95% methanol containing 0.1N HCl; format: physicochemical; conditions: after 2.25 hour in 95% methanol containing 0.1N HCl
Description: Acid stability of the compounds was assayed in 95% methanol containing 0.1N HCl. Approximately 90% of the compound of Example 1 was still present intact (without decomposition) after 2.25 hour in this solution.

[5] = Solubility in aqueous buffer; format: physicochemical
[6] = after 5.75 hr hydrolysis at pH 7.4, 10 μM

Compound | inhibition at 10 µM (gastric H,K-ATPase; [6]) | inhibition of gastric H,K-ATPase activity after 5.75 hr hydrolysis (gastric H,K-ATPase; [6]) | % inhibition of gastric acid secretion [1] | inhibition of histamine-stimulated acid output [2] | Relative concentration of OMEPRAZOLE released in the plasma ([3]; 20 min after oral administration) | Relative concentration of OMEPRAZOLE released in the plasma ([3]; 40 min after oral administration) | Relative concentration of OMEPRAZOLE released in the plasma ([3]; 60 min after oral administration) | Relative concentration of OMEPRAZOLE released in the plasma ([3]; 80 min after oral administration) | time until OMEPRAZOLE has completely disappeared from the plasma ([3]; administrated to male rat (control)) | inhibition of enzyme activity after 80 minutes (gastric H,K-ATPase; 10 μM) | inhibition of enzyme activity after 80 minutes (gastric H,K-ATPase; 50 μM) | inhibition of gastric H,K-ATPase activity after 5.75 hr hydrolysis (gastric H,K-ATPase; after 5.75 hr hydrolysis at pH 7.4, 10 μM, listed as 1-benzenesulfonyl-5-methoxy-2-[(3,5-dimethyl-4-methoxy-2-pyridyl)methylsulfinyl], 10 µM) | inhibition of gastric H,K-ATPase activity initially (before hydrolysis) (gastric H,K-ATPase) | inhibition of gastric H,K-ATPase activity initially (before hydrolysis) (gastric H,K-ATPase; listed as 1-benzenesulfonyl-5-methoxy-2-[(3,5-dimethyl-4-methoxy-2-pyridyl)methylsulfinyl]) | compound still present intact (without decomposition) [4] | solubility in aqueous buffer (comparison) [5]
COc1ccc2[nH]c([S+]([O-])Cc3ncc(C)c(OC)c3C)nc2c1 (centres unmarked) [OMEPRAZOLE, 5-methoxy-2-[(3,5-dimethyl-4-methoxy-2-pyridyl)methylsulfinyl]-1H-benzimidazole, reference compound] | 91% | the same level of inhibition | 19.6% and 19.6 ± 3.9% | 54.6% | 28 arbitrary unit | 4 arbitrary unit | 2 arbitrary unit | 1 arbitrary unit | ≤ 1.5 h |  |  |  |  |  |  | 
1-Benzenesulfonyl-5-methoxy-2-[(3,5-dimethyl-4-methoxy-2-pyridyl)methylsulfinyl]-1H-benzimidazole and 1-Benzensulfonyl-6-methoxy-2-[(3,5-dimethyl-4-methoxy-2-pyridyl)methylsulfinyl]-1H-benzimidazole [Example 1] |  | the same level of inhibition |  |  |  |  |  |  |  | 10% | 50% | 91% | failed to inhibit enzyme activity | did not inhibit | Approximately 90% | slightly higher solubility in aqueous buffer than the compound of Example 19
